One assay concerns DU-145. The conditions noted are these: DU-145, 10 μM.
The test system of another assay is MDA-MB-435. Description: NCI SRB screening. Particulars: MDA-MB-435, 10 μM. In kind it is cell-based.
Another assay relates to A498. Particulars: A498, 10 μM.
Another assay has as its system RXF 393. Particulars: RXF 393, 10 μM.
The test system of another assay is HCT-116. The conditions noted are these: HCT-116, 10 μM.
The subject of a further assay is OVCAR-4. The conditions noted are these: OVCAR-4, 10 μM.
A further assay has as its system HCT-15. Particulars: HCT-15, 10 μM.
Another assay has as its system SF-295. Particulars: SF-295, 10 μM.
The next assay concerns UACC-62. The conditions noted are these: UACC-62, 10 μM.
A further assay deals with NCI-H522. Particulars: NCI-H522, 10 μM.
In another assay the test system is NCI-H23. Particulars: NCI-H23, 10 μM.
For the next assay, the system named is HS 578T. The conditions noted are these: 10 μM.
For a further assay, the system named is LOX IMVI. Description: NCI SRB screening. In kind it is cell-based, human. The conditions noted are these: 10 μM.
A further assay has as its system U251. Particulars: U251, 10 μM.
The subject of a further assay is HCC-2998. Description: NCI SRB screening. Particulars: HCC-2998, 10 μM. The format is cell-based, human.
The subject of another assay is NCI/ADR-RES. Particulars: 10 μM.
The next assay relates to MDA-MB-468. The conditions noted are these: MDA-MB-468, 10 μM.
A further assay deals with HOP-62. Particulars: HOP-62, 10 μM.
The subject of the next assay is NCI-H226. Particulars: NCI-H226, 10 μM.

SMILES strings stand for the structures.

Consider `C=CCn1cc(C=NN=C2C(=O)Nc3ccccc32)c2ccccc21` [Compound 10a], for which the GI % entry was “– (Only GI % higher than 10% are shown)” with DU-145; “– (Only GI % higher than 10% are shown)” in the assay with MDA-MB-435; “– (Only GI % higher than 10% are shown)” in the assay on A498; 11% in the assay on RXF 393; 24% with HCT-116; 27% in the assay with OVCAR-4. The GI % in the assay with HCT-15 is recorded as 15%; in the assay on SF-295 it was “– (Only GI % higher than 10% are shown)”; in the assay with UACC-62 it was 25%; in the assay on NCI-H522, 31%; in the assay on NCI-H23, 12%; in the assay with HS 578T, “– (Only GI % higher than 10% are shown)”. Further, the GI % entry is listed as “– (Only GI % higher than 10% are shown)” with LOX IMVI; 10% with U251; “– (Only GI % higher than 10% are shown)” in the assay with HCC-2998; “– (Only GI % higher than 10% are shown)” with NCI/ADR-RES; 20% in the assay on MDA-MB-468; “– (Only GI % higher than 10% are shown)” in the assay on HOP-62. For the same molecule, the GI % in the assay on NCI-H226 was found to be 13%.

In the case of `CC(C)n1cc(C=NN=C2C(=O)Nc3ccccc32)c2ccccc21` [Compound 9], the GI % result in the assay with DU-145, in the assay on MDA-MB-435, with A498, in the assay on RXF 393, in the assay with HCT-116 and in the assay with OVCAR-4 was “– (Only GI % higher than 10% are shown)” in each case. Besides, the GI % result is given as “– (Only GI % higher than 10% are shown)” with HCT-15; “– (Only GI % higher than 10% are shown)” in the assay on SF-295; “– (Only GI % higher than 10% are shown)” in the assay with UACC-62; 10% in the assay on NCI-H522; “– (Only GI % higher than 10% are shown)” with NCI-H23; “– (Only GI % higher than 10% are shown)” in the assay with HS 578T. Besides, the GI % entry in the assay on LOX IMVI, in the assay on U251, in the assay on HCC-2998, in the assay on NCI/ADR-RES, in the assay with MDA-MB-468 and with HOP-62 was “– (Only GI % higher than 10% are shown)” in each case. The molecule further gave a GI % with NCI-H226 of 16%.

`CCCn1cc(C=NN=C2C(=O)Nc3ccc([N+](=O)[O-])cc32)c2ccccc21` [Compound 8c]: the GI % result in the assay with DU-145 is “– (Only GI % higher than 10% are shown)”; with MDA-MB-435, “– (Only GI % higher than 10% are shown)”; in the assay with A498, “– (Only GI % higher than 10% are shown)”; in the assay on RXF 393, “– (Only GI % higher than 10% are shown)”; with HCT-116, 20%; with OVCAR-4 it was “– (Only GI % higher than 10% are shown)”. The GI % entry with HCT-15, in the assay on SF-295, in the assay on UACC-62, in the assay with NCI-H522, with NCI-H23 and in the assay on HS 578T was “– (Only GI % higher than 10% are shown)” each time. In addition, the GI % entry is on record as “– (Only GI % higher than 10% are shown)” with LOX IMVI; 28% in the assay with U251; “– (Only GI % higher than 10% are shown)” in the assay with HCC-2998; “– (Only GI % higher than 10% are shown)” in the assay on NCI/ADR-RES; 17% in the assay on MDA-MB-468; “– (Only GI % higher than 10% are shown)” in the assay with HOP-62. In addition, in the assay on NCI-H226, the GI % entry is given as “– (Only GI % higher than 10% are shown)”.

As for `CCCn1cc(/C=N/N=C2\C(=O)Nc3ccc(OC(F)(F)F)cc32)c2ccccc21` [Compound 8b], the GI % with DU-145 was 13%; in the assay on MDA-MB-435, “– (Only GI % higher than 10% are shown)”; in the assay on A498, “– (Only GI % higher than 10% are shown)”; with RXF 393, “– (Only GI % higher than 10% are shown)”; in the assay on HCT-116, 21%; with OVCAR-4 it was “– (Only GI % higher than 10% are shown)”. Moreover, the GI % with HCT-15 is 23%; in the assay with SF-295 it was “– (Only GI % higher than 10% are shown)”; with UACC-62, 11%; in the assay on NCI-H522 it was 19%; with NCI-H23, 12%; in the assay with HS 578T it was “– (Only GI % higher than 10% are shown)”. For the same molecule, the GI % entry is reported as “– (Only GI % higher than 10% are shown)” in the assay with LOX IMVI; 13.32% in the assay with U251; “– (Only GI % higher than 10% are shown)” in the assay with HCC-2998; 15% in the assay on NCI/ADR-RES; 11% in the assay on MDA-MB-468; 21% in the assay with HOP-62. Further, in the assay with NCI-H226, the GI % entry was “– (Only GI % higher than 10% are shown)”.

`C=CCn1cc(C=NN=C2C(=O)Nc3c(F)cccc32)c2ccccc21` [Compound 10c]: the GI % result with DU-145 is given as “– (Only GI % higher than 10% are shown)”; in the assay on MDA-MB-435, “– (Only GI % higher than 10% are shown)”; in the assay on A498 it was “– (Only GI % higher than 10% are shown)”; in the assay with RXF 393 it was “– (Only GI % higher than 10% are shown)”; in the assay on HCT-116, 28%; with OVCAR-4 it was 22%. The GI % in the assay with HCT-15 is recorded as 22%; in the assay with SF-295, “– (Only GI % higher than 10% are shown)”; with UACC-62, 15%; in the assay with NCI-H522, 34%; in the assay on NCI-H23, “– (Only GI % higher than 10% are shown)”; in the assay with HS 578T, “– (Only GI % higher than 10% are shown)”. In addition, the GI % result in the assay on LOX IMVI was “– (Only GI % higher than 10% are shown)”; in the assay with U251, “– (Only GI % higher than 10% are shown)”; with HCC-2998 it was “– (Only GI % higher than 10% are shown)”; with NCI/ADR-RES it was “– (Only GI % higher than 10% are shown)”; in the assay on MDA-MB-468, 54%; with HOP-62 it was “– (Only GI % higher than 10% are shown)”. In addition, in the assay with NCI-H226, the GI % came out at 56%.

For `C=CCn1cc(C=NN=C2C(=O)Nc3ccc(Cl)cc32)c2ccccc21` [Compound 10d], the GI % result in the assay on DU-145, in the assay on MDA-MB-435, in the assay on A498, in the assay with RXF 393, with HCT-116 and in the assay on OVCAR-4 was “– (Only GI % higher than 10% are shown)” each time. Also, the GI % is 10% in the assay on HCT-15; “– (Only GI % higher than 10% are shown)” in the assay with SF-295; 19% in the assay with UACC-62; 17% in the assay on NCI-H522; “– (Only GI % higher than 10% are shown)” with NCI-H23; “– (Only GI % higher than 10% are shown)” with HS 578T. In addition, the GI % result with LOX IMVI was “– (Only GI % higher than 10% are shown)”; with U251 it was “– (Only GI % higher than 10% are shown)”; with HCC-2998, “– (Only GI % higher than 10% are shown)”; in the assay with NCI/ADR-RES, “– (Only GI % higher than 10% are shown)”; in the assay on MDA-MB-468, 36%; in the assay with HOP-62, “– (Only GI % higher than 10% are shown)”. The molecule further returned a GI % in the assay on NCI-H226 of 41%.

The values are drawn from publication PMC7717600, “Novel [(N-alkyl-3-indolylmethylene)hydrazono]oxindoles arrest cell cycle and induce cell apoptosis by inhibiting CDK2 and Bcl-2: synthesis, biological evaluation and in silico studies” (Journal of Enzyme Inhibition and Medicinal Chemistry, 2020).
